According to patent US20210116454A1, “METHODS FOR TREATING A HEMATOLOGICAL CANCER AND THE USE OF COMPANION BIOMARKERS FOR 2-(2,6-DIOXOPIPERIDIN-3-YL)-4-((2-FLUORO-4-((3-MORPHOLINOAZETIDIN-1-YL)METHYL)BENZYL)AMINO)ISOINDOLINE-1,3-DIONE” (CELGENE CORPORATION, priority 2019, published 2021):

Experiments:
[1] = tested on: Peripheral blood mononuclear cells derived from four healthy donors; assay: Viability of CD3-stimulated PBMCs (Viobility Fixable Dye, flow cytometry); assay type: cell-based
Experimental: To establish that this was due to the effect of the compound in promoting Ikaros degradation and not because of a lack of cell proliferation or viability of the CD3-stimulated PBMCs, the effect of Compound 1 on their viability was assessed by flow cytometry. […] Peripheral blood mononuclear cells derived from four healthy donors were exposed to Compound 1 at concentrations of 0.1, 1, 10, or 100 nM for 3, 4, or 7 days, and viability was measured by staining with Viobility™ Fixable Dye. […] The trend in cell viability continued through day 7, with Compound 1 treatment not effecting the viability of the PBMCs.

Ikaros = Ikaros (Homo sapiens, UniProt Q13422+Q96SW2); assay: Ikaros degradation in anti-CD3 stimulated PBMCs by flow cytometry; assay type: cell-based
Ikaros, sequence (Q13422 whole entry): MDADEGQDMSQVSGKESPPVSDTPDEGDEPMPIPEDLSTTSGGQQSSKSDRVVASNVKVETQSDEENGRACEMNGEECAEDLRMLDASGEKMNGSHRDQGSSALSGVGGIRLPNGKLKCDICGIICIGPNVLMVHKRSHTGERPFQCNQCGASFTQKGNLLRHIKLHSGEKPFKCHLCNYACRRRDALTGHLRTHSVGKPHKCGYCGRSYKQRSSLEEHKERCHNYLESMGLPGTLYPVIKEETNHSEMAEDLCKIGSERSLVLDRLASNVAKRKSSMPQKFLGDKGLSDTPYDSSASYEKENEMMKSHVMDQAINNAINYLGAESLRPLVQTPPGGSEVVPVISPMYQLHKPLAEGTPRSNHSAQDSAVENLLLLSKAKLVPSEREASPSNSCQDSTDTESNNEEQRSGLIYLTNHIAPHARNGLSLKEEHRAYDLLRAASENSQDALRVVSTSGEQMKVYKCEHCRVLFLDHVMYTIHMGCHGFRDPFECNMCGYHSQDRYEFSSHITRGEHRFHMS
Ikaros, sequence (Q96SW2 whole entry): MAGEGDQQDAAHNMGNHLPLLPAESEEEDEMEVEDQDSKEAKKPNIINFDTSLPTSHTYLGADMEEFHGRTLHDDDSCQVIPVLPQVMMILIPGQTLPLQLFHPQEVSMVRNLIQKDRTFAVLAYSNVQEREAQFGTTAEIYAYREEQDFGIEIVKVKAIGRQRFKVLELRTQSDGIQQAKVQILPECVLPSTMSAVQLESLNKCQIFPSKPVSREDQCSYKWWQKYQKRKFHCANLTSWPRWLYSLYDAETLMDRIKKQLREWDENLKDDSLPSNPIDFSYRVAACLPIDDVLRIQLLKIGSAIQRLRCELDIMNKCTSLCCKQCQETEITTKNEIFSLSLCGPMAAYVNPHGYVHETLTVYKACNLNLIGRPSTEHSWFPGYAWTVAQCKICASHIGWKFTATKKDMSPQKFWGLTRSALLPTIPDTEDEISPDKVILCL
Ikaros, sequence (Q16531 whole entry partner): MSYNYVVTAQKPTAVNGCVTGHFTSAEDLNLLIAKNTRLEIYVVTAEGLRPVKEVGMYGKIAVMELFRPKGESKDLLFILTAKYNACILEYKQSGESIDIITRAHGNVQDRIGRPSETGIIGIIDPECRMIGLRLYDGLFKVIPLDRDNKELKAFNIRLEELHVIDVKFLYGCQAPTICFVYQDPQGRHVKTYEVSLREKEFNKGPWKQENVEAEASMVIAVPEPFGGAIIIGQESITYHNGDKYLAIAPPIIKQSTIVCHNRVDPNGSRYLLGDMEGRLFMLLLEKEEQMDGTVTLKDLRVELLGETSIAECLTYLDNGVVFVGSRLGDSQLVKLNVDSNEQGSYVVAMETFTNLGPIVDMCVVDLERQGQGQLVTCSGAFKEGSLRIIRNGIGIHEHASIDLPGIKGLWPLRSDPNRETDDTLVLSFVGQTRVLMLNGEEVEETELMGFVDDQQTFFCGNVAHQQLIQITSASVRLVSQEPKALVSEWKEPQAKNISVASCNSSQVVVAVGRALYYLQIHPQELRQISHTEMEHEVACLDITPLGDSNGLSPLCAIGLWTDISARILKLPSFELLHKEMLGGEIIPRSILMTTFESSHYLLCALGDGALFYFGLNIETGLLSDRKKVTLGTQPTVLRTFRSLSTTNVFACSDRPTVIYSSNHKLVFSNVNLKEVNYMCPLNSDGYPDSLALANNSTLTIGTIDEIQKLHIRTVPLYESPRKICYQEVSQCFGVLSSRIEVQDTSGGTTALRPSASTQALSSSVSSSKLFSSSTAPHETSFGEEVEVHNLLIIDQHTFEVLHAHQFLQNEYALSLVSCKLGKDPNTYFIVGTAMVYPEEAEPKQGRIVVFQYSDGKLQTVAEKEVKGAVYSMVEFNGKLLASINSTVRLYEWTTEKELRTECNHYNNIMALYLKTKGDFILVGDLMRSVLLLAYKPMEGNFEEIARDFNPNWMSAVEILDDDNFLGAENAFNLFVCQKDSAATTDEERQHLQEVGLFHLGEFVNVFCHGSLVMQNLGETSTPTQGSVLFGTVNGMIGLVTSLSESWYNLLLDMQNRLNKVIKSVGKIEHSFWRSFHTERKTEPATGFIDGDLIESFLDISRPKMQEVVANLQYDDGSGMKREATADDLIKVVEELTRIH
Experimental: Purified PBMCs from four healthy donors were plated on anti-CD3-coated plates to stimulate T cells and subsequently treated with either DMSO (control) or Compound 1 at various concentrations. The ability of Compound 1 to promote the degradation of Ikaros was assessed over time by flow cytometry (FIG. 12).

ZFP91 [2] = target: T1, ZFP91 (Homo sapiens, UniProt Q96JP5+Q96SW2); assay: ePL-tagged substrate degradation kinetics in DF15 cells (enantiomer comparison); assay type: cell-based; set-up: ZFP91 Y-constant: scale not given here; settings: for DC50: read-out: ZFP91 EC50
T1 construct: expressed in transfected cells; host or cells: DF15 cells
T1 sequence (Q96JP5 whole entry): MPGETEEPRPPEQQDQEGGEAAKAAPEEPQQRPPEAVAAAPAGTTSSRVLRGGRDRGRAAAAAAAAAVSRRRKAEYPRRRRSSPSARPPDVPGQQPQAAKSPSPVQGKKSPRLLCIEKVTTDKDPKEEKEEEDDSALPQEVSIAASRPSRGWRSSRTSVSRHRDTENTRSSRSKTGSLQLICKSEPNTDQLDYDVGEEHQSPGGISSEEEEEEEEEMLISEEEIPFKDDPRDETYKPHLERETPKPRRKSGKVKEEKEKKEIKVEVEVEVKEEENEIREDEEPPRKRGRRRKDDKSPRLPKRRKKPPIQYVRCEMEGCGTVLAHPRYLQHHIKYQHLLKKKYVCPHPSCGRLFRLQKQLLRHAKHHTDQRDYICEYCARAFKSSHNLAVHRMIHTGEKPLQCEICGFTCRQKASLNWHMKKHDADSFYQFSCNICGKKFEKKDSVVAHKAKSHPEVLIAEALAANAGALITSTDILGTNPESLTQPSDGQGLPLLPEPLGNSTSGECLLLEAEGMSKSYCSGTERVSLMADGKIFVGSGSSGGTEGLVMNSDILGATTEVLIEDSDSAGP
T1 sequence (Q96SW2 whole entry): as the sequence (Q96SW2 whole entry) above
T1 sequence (Q16531 whole entry partner): as the sequence (Q16531 whole entry partner) above
Experimental: In a second assay, DF15 cell lines expressing ePL-tagged target protein substrates were used as a model system to monitor protein degradation at 0.75, 1, 1.5, 3, 4, and 24 hours over a concentration range from 1 pM to 10 μM. The proteins evaluated were Ikaros (FIG. 17), Aiolos, and ZFP91. Compound 1 and Compound 2 were both able to degrade the substrate proteins at all time points (Table 9). In a further assay, additional time points were included to monitor the effect of treatment with Compound 1 and Compound 2.
The depth of substrate protein degradation described by the Y-constant was also measured in this assay against a negative control luciferase inhibitor (CC1071297, Y-constant=0).

ZFP91 [3] = target: T1, ZFP91; assay: Enzyme fragment complementation (EFC) degradation assay, DF15 cells expressing ePL-tagged substrate; assay type: cell-based; settings: for Emax: remaining substrate; for DC50: read-out: ZFP91 degradation EC50
MyoF system = assay: BioMAP MyoF system (lung fibroblasts); assay type: cell-based, human; settings: 0.01, 0.1, 1, and 10 μM
Experimental: The activity of Compound 1 was profiled in a panel of human primary cell-based assays, modeling complex tissue and disease biology of organs (vasculature, immune system, skin, lung) and general tissue biology using the BioMAP System (DiscoveRx, Fremont, Calif.).
The BioMAP System consists of twelve primary human monoculture or co-culture systems in stimulated and non-stimulated control conditions (FIG. 4, panel A). When tested at 0.01, 0.1, 1, and 10 μM, Compound 1 mediated changes in key biomarker activities. Specifically, the profiles for Compound 1 reflected selective anti-inflammatory and immunomodulatory impact on monocyte (LPS) and T cell dependent B cell activation responses (BT). Treatment with Compound 1 led to a decrease in interleukin 8 (IL-8), interleukin 1a (IL-1a), secreted prostaglandin E2 (sPGE2), and secreted tumor necrosis factor alpha (sTNFα) in the LPS system, which consisted of peripheral blood mononuclear cells (PBMCs) and endothelial cells. Furthermore, secreted IgG (sIgG), secreted interleukin 17A (sIL-17A), secreted interleukin 17F (sIL-17F), and sTNFα decreased, whereas secreted interleukin 2 (sIL-2) and secreted interleukin 6 (sIL-6) increased, in the BT system, which was comprised of B cells and PBMCs.

RIVA CRBN^WT cells = assay: Cell proliferation in CRBN^WT (CAS9 control) cells, 5 days; assay type: cell-based; settings: 120 h
Source text: (§1) The activated B-cell (ABC) and MYC/BCL2 double expressor cell lines SU-DHL-2 and RIVA, the germinal center B-cell (GCB) and MYC/BCL2 double hit cell lines (and expressing BCL6) Karpas-422, SU-DHL-10, WSU-DLCL2, and the primary mediastinal B-cell lymphoma (PMBL) cell line Farage were infected with a CAS9 expressing lentivirus construct to generate the control CAS9 expressing cells. The Cas9 cells had wild type cereblon expression (CRBN^WT).
(§2) To generate the cereblon knock out cells (CRBN^−/−), the individual control CAS9 cells were infected with a construct expressing a subgenomic single guide RNA (sgRNA). Western blot analysis confirmed the absence of cereblon protein in the CRBN^−/− cells, relative to the levels of the housekeeping protein β-tubulin. The CRBN^WT and CRBN^−/− cells were treated with increasing concentrations of Compound 1 for five days.

Karpas-422 CRBN^WT cells = assay: as above; assay type: cell-based; settings: Homo sapiens, 120 h
Source text: as §1, §2

WSU-DLCL2 CRBN^WT cells = assay: as above; assay type: cell-based; settings: Homo sapiens, WSUDLCL2, 120 h
Source text: as §1, §2

SU-DHL10 CRBN^WT cells = assay: as above; assay type: cell-based; settings: Homo sapiens, 120 h
Source text: as §1, §2

Farage CRBN^WT cells = assay: as above; assay type: cell-based; settings: 120 h
Source text: as §1, §2

SU-DHL2 CRBN^WT cells = assay: as above; assay type: cell-based; settings: Homo sapiens, SU-DHL-2, 120 h
Source text: as §1, §2

O=C1CC[C@H](N2C(=O)c3cccc(NCc4ccc(CN5CC(N6CCOCC6)C5)cc4F)c3C2=O)C(=O)N1 [Compound 1, (S)-2-(2,6-dioxopiperidin-3-yl)-4-((2-fluoro-4-((3-morpholinoazetidin-1-yl)methyl)benzyl)amino)isoindoline-1,3-dione]
effect on PBMC viability ([1]; 0.1, 1, 10, or 100 nM for 3, 4, or 7 days): no significant effect | viable PBMCs ([1]; day 3 and day 4, 0.1, 1, 10, or 100 nM): roughly 80% | duration of Ikaros degradation after a single treatment (Ikaros): maintained up to 7 days | Ikaros in PBMCs (percentage of Ikaros positive cells) (Ikaros; four healthy donors): concentration-dependent degradation | ZFP91 Y-constant (ZFP91 [2]; 0.75 hours): 37 | DC50 (ZFP91 [2]; 0.75 hours): 0.54 nM | ZFP91 Y-constant (ZFP91 [2]; 1 hour): 28 | DC50 (ZFP91 [2]; 1 hour): 0.36 nM | ZFP91 Y-constant (ZFP91 [2]; 1.5 hours): 11 | DC50 (ZFP91 [2]; 1.5 hours): 0.36 nM | ZFP91 Y-constant (ZFP91 [2]; 3 hours): 4.9 | DC50 (ZFP91 [2]; 3 hours): 0.19 nM | ZFP91 Y-constant (ZFP91 [2]; 4 hours): 4.3 | DC50 (ZFP91 [2]; 4 hours): 0.17 nM | ZFP91 Y-constant (ZFP91 [2]; 24 hours): 2.0 | DC50 (ZFP91 [2]; 24 hours): 0.15 nM | Emax (ZFP91 [3]; DF15, DF15 ePL-ZFP91, 1 hour): 64% | Emax (ZFP91 [3]; DF15, DF15 ePL-ZFP91, 2 hours): 26.5% | Emax (ZFP91 [3]; DF15, DF15 ePL-ZFP91, 6 hours): 4% | Emax (ZFP91 [3]; DF15, DF15 ePL-ZFP91, 24 hours): 2.5% | DC50 (ZFP91 [3]; DF15 ePL-ZFP91, 1 hour): 1 nM | DC50 (ZFP91 [3]; DF15 ePL-ZFP91, 2 hours): 0.5 nM | DC50 (ZFP91 [3]; DF15 ePL-ZFP91, 6 hours): 0.2 nM | DC50 (ZFP91 [3]; DF15 ePL-ZFP91, 24 hours): 0.1 nM | collagen-I and -III expression (MyoF system): compelling inhibition | plasminogen activator inhibitor-1 (PAI-1) expression (MyoF system): slight inhibition | Emax (RIVA CRBN^WT cells): 30% | IC50 (RIVA CRBN^WT cells): 8 nM | Emax (Karpas-422 CRBN^WT cells): 5% | IC50 (Karpas-422 CRBN^WT cells): 15 nM | Emax (WSU-DLCL2 CRBN^WT cells): 19% | IC50 (WSU-DLCL2 CRBN^WT cells): 40 nM | Emax (SU-DHL10 CRBN^WT cells): 0% | IC50 (SU-DHL10 CRBN^WT cells): 35 nM | Emax (Farage CRBN^WT cells): 0.5% | IC50 (Farage CRBN^WT cells): 8 nM | Emax (SU-DHL2 CRBN^WT cells): 1% | IC50 (SU-DHL2 CRBN^WT cells): 2.5 nM
